Data: patent US20070128217A1 (priority 2003, published 2007)

Assays:
[1] = tested on: recombinant human anti-SARS-CoV antibody 03-018; assay type: binding; set-up: Binding of antibody 03-018 to linear peptides of the N protein of SARS-CoV Urbani / Binding of antibody 03-018 to looped/cyclic peptides of the N protein of SARS-CoV Urbani: unit not given here
[2] = tested on: antibodies in sera from SARS patients (sera 1a, 1b, 2, 6, 37, 62, London, SARS-yellow, SARS-green); assay type: binding, human; set-up: Binding of serum 6 to linear peptides of protein X1 of SARS-CoV Urbani / Binding of serum 37 to linear peptides of protein X1 of SARS-CoV Urbani / Binding of serum 6 to looped/cyclic peptide (PEPSCAN-ELISA) / Binding of serum 37 to looped/cyclic peptide (PEPSCAN-ELISA) / Binding of serum 37 to looped/cyclic peptides of protein X1 of SARS-CoV Urbani / Binding of serum 6 to linear peptides of protein X2 / Binding of serum 37 to linear peptides of protein X2 / Binding of serum 37 to looped/cyclic peptides of protein X2 of SARS-CoV Urbani / Binding of serum 6 to linear peptides of protein M of SARS-CoV Urbani / Binding of serum 37 to linear peptides of protein M of SARS-CoV Urbani / Binding of serum 6 to looped/cyclic peptides of protein M of SARS-CoV Urbani / Binding of serum 37 to looped/cyclic peptides of protein M of SARS-CoV Urbani / Binding of serum 6 to linear peptides of protein X3 of SARS-CoV Urbani / Binding of serum 37 to linear peptides of protein X3 of SARS-CoV Urbani / Binding of serum 37 to looped/cyclic peptides of protein X3 of SARS-CoV Urbani / Binding of serum 6 to linear peptides of protein X4 of SARS-CoV Urbani / Binding of serum 37 to linear peptides of protein X4 of SARS-CoV Urbani / Binding of serum 37 to looped/cyclic peptides of protein X4 of SARS-CoV Urbani / Binding of serum 6 to linear peptides of protein X5 of SARS-CoV Urbani / Binding of serum 37 to linear peptides of protein X5 of SARS-CoV Urbani / Binding of serum 37 to looped/cyclic peptides of protein X5 of SARS-CoV Urbani / Binding of serum 6 to linear peptides of protein N of SARS-CoV Urbani / Binding of serum 37 to linear peptides of protein N of SARS-CoV Urbani / Binding of serum 6 to linear peptide (PEPSCAN-ELISA) / Binding of serum 1a to looped/cyclic peptides of protein N of SARS-CoV Urbani / Binding of serum 1b to looped/cyclic peptides of protein N of SARS-CoV Urbani / Binding of serum 2 to looped/cyclic peptides of protein N of SARS-CoV Urbani / Binding of serum 6 to looped/cyclic peptides of protein N of SARS-CoV Urbani / Binding of serum 37 to looped/cyclic peptides of protein N of SARS-CoV Urbani / Binding of serum 62 to looped/cyclic peptides of protein N of SARS-CoV Urbani / Binding of serum London to looped/cyclic peptides of protein N of SARS-CoV Urbani / Binding of serum SARS-green to looped/cyclic peptides of protein N of SARS-CoV Urbani: unit not given here
[3] = tested on: rabbit serum obtained by immunizing a rabbit with the SARS-CoV strain Frankfurt 1; assay type: binding; set-up: Binding of a rabbit serum to linear peptides / Binding of a rabbit serum to looped peptides / Rabbit serum linear peptides / Rabbit serum looped peptides / Binding of a rabbit serum to linear peptides of protein N of SARS-CoV Urbani (Rabbit serum linear peptides) / Binding of a rabbit serum to looped/cyclic peptides of protein N of SARS-CoV Urbani (Rabbit serum looped peptides): unit not given here
[4] = tested on: control sera (pooled serum of ten healthy LUMC hospital workers; commercial negative donor pooled serum from the Dutch bloodbank); assay type: binding, human; set-up: Binding of Control serum LUMC to linear peptides / Binding of Control serum Blood-bank to linear peptides / Binding of Control serum LUMC to looped peptides / Binding of Control Serum Blood-Bank to Looped peptides / Binding of Control serum LUMC to linear peptides of the protein M of SARS-CoV Urbani / Binding of Control serum Blood-bank to linear peptides of the protein M of SARS-CoV Urbani / Binding of Control serum LUMC to looped peptides of the protein M of SARS-CoV Urbani / Binding of Control Serum Blood-Bank to Looped peptides of the protein M of SARS-CoV Urbani: unit not given here

Sequence	Binding of antibody 03-018 to linear peptides of the N protein of SARS-CoV Urbani [1]	Binding of antibody 03-018 to looped/cyclic peptides of the N protein of SARS-CoV Urbani [1]	Binding of serum 1a to linear peptides of protein N of SARS-CoV Urbani [2]	Binding of serum 1a to looped/cyclic peptides of protein N of SARS-CoV Urbani [2]	Binding of serum 1b to linear peptides of protein N of SARS-CoV Urbani [2]	Binding of serum 1b to looped/cyclic peptides of protein N of SARS-CoV Urbani [2]	Binding of serum 2 to linear peptides of protein N of SARS-CoV Urbani [2]	Binding of serum 2 to looped/cyclic peptides of protein N of SARS-CoV Urbani [2]	Binding of serum 6 to linear peptides of protein N of SARS-CoV Urbani [2]	Binding of serum 6 to looped/cyclic peptides of protein N of SARS-CoV Urbani [2]	Binding of serum 37 to linear peptides of protein N of SARS-CoV Urbani [2]	Binding of serum 37 to looped/cyclic peptides of protein N of SARS-CoV Urbani [2]	Binding of serum 62 to linear peptides of protein N of SARS-CoV Urbani [2]	Binding of serum 62 to looped/cyclic peptides of protein N of SARS-CoV Urbani [2]	Binding of serum London to linear peptides of protein N of SARS-CoV Urbani [2]	Binding of serum London to looped/cyclic peptides of protein N of SARS-CoV Urbani [2]	Binding of serum SARS-green to looped/cyclic peptides of protein N of SARS-CoV Urbani [2]	Binding of serum SARS-yellow to looped/cyclic peptides of protein N of SARS-CoV Urbani [2]	Binding of a rabbit serum to linear peptides of protein N of SARS-CoV Urbani (Rabbit serum linear peptides) [3]	Binding of a rabbit serum to looped/cyclic peptides of protein N of SARS-CoV Urbani (Rabbit serum looped peptides) [3]	also measured
LLPAADMDDFSRQLQ	0.1	0.2	0.3	0.3	0.2	0.1	0.3	0.4	0.3	0.1	0.8	0.5	0.6	0.2	0.6	0.3	0.2	0.3	0.1	0.2	Binding of serum SARS-green to linear peptides of protein N of SARS-CoV Urbani [2]: 0.4; Binding of serum SARS-yellow to linear peptides of protein N of SARS-CoV Urbani [2]: 0.6; Control Serum Blood-Bank Looped peptides [4]: 0.4; Control serum Blood-bank linear peptides [4]: 0.7; Control serum LUMC linear peptides [4]: 0.6; Control serum LUMC looped peptides [4]: 0.4
LNKHIDAYKTFPPTE	0.1	0.2	0.2	0.2	0.1	0.1	0.1	0.2	0.1	0.1	0.7	0.4	0.5	0.3	0.4	0.3	0.2	0.1	0.1	0.4	Binding of serum SARS-green to linear peptides of protein N of SARS-CoV Urbani [2]: 0.4; Binding of serum SARS-yellow to linear peptides of protein N of SARS-CoV Urbani [2]: 0.5; Control Serum Blood-Bank Looped peptides [4]: 0.4; Control serum Blood-bank linear peptides [4]: 0.5; Control serum LUMC linear peptides [4]: 0.5; Control serum LUMC looped peptides [4]: 0.4
LNQLESKVSGKGQQQ	0.1	0.3		0.4		0.3		0.6		0.4		0.6		0.6		0.5	0.5	0.8	0.2	0.4	Binding of serum 1a to linear peptide (PEPSCAN-ELISA) [2]: 0.3; Binding of serum 1b to linear peptide (PEPSCAN-ELISA) [2]: 0.1; Binding of serum 2 to linear peptide (PEPSCAN-ELISA) [2]: 0.3; Binding of serum 6 to linear peptide (PEPSCAN-ELISA) [2]: 0.2; Binding of serum 37 to linear peptide (PEPSCAN-ELISA) [2]: 0.7; Binding of serum 62 to linear peptide (PEPSCAN-ELISA) [2]: 0.9; Binding of serum London to linear peptide (PEPSCAN-ELISA) [2]: 0.6; Binding of serum SARS-green to linear peptide (PEPSCAN-ELISA) [2]: 0.4; Binding of serum SARS-yellow to linear peptide (PEPSCAN-ELISA) [2]: 0.7; Binding of Control Serum Blood-Bank to Looped peptides [4]: 0.7; Binding of Control serum Blood-bank to linear peptides [4]: 0.8; Binding of Control serum LUMC to linear peptides [4]: 0.7; Binding of Control serum LUMC to looped peptides [4]: 0.7
